Key:
[1] = system: SkBr3 (Her2 overexpressing breast cancer cells); assay: Anti-proliferation activity against SkBr3 cells (MTS/PMS); assay type: cell-based; conditions: up to 100 μM
Outline: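 Cells seeded at 2000/well, attached overnight, then exposed to compound at varying concentrations (1% DMSO final) for 72 hours at 37° C. Viable cells read by MTS/PMS, normalised to 1% DMSO as 100% proliferation. IC50 from separate triplicate experiments.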

[2] = system: Hsp90-dependent client protein phospho-AKT in SKBr3 breast cancer cells; assay: Degradation of phospho-AKT, Western blot in SKBr3 cells; assay type: cell-based; conditions: 100 μM
Experimental: Total protein concentration of each lysate was determined and equal amounts of protein were run in each lane of the gels. For the graphs shown in FIG. 1, the O.D.'s (optical density) of the Western bands for phospho-AKT were measured, as were the O.D.'s for actin probed as controls on the same blots. To obtain the graphed values, all specific O.D.'s (for Hsp90 clients) were normalized to the respective actin O.D.
Inhibition of Hsp90 results in the degradation of Hsp90-dependent clients via ubiquitination of the unfolded client followed by proteasome-mediated hydrolysis. […] Geldanamycin (GDA, 0.5 μM) was used as a positive control for Hsp90 inhibition.

[3] = system: Hsp90 client protein Her-2 in Skbr3 breast cancer cells; assay: Degradation of Her-2, Western blot in Skbr3 cells; assay type: cell-based
Experimental: After incubation, the cells were harvested, lysed, and equal amounts of the protein lysates loaded into SDS wells. After electrophoresis, the gel was probed with Her-2 and actin (control) antibodies.

primary cortical neurons = assay: Toxicity of drug alone in neuronal cells (Live-Dead assay); assay type: cell-based
Excerpt: More specifically, primary cortical neurons were recovered from embryonic day 18 rat brains as described previously (Michaelis et al., Immunological Localization And Kinetic Characterization Of A Na+/Ca2+Exchanger In Neuronal And Nonneuronal Cells, Brain Res. 661 104-116 (1994)). Briefly, about 10 to 16 brains were removed from fetuses delivered by cesarean section, and the cortices dissected out. The neurons were isolated and suspended in DMEM/F12 supplemented with 10% FBS and plated on sterile dishes or cover slips coated with 10 μg/ml poly-D-lysine and 5 μg/ml mouse laminin. After 24 hours, the serum-containing medium was removed, and neurons were maintained in Neurobasal medium (Gibco) with 2% B-27 supplements (Gibco). Cells were maintained in culture at 37° C. in 5% CO2 and 97% humidity for 7 to 8 eight days in vitro (DIV) before use. […] Stock solutions of Aβ were prepared in sterile water at a concentration of 1.3 mM and stored at −20° C. Aliquots of the stock solutions were diluted to 1 mM in sterile 50 mM Tris-HCl, pH 7.4, and incubated at 37° C. for 24 hours to promote oligomerization of the peptides prior to treatment of the neurons. The effects of KU-1/A4, GA, Aβ, or the indicated combinations on neuronal viability were determined by monitoring cell survival using the Live-Dead assay as previously described. […] Digital images from 6 fields per dish were captured, and the number of viable (green) and dead (red) cells counted. All experiments were conducted with duplicate dishes from at least two neuronal preparations for each treatment, with about 1,000 cells analyzed/treatment condition. The data are expressed as the fraction of viable cells calculated from the total number of neurons counted under each treatment condition. The significance of differences between cultures exposed to various treatment conditions was determined using Student's t-test.

P-glycoprotein (P-gp) = P-glycoprotein (P-gp) (Bos taurus, UniProt A0A3Q1MB23); assay: Rhodamine 123 uptake assay in BMECs
Sequence of P-glycoprotein (P-gp) (A0A3Q1MB23 1-1267): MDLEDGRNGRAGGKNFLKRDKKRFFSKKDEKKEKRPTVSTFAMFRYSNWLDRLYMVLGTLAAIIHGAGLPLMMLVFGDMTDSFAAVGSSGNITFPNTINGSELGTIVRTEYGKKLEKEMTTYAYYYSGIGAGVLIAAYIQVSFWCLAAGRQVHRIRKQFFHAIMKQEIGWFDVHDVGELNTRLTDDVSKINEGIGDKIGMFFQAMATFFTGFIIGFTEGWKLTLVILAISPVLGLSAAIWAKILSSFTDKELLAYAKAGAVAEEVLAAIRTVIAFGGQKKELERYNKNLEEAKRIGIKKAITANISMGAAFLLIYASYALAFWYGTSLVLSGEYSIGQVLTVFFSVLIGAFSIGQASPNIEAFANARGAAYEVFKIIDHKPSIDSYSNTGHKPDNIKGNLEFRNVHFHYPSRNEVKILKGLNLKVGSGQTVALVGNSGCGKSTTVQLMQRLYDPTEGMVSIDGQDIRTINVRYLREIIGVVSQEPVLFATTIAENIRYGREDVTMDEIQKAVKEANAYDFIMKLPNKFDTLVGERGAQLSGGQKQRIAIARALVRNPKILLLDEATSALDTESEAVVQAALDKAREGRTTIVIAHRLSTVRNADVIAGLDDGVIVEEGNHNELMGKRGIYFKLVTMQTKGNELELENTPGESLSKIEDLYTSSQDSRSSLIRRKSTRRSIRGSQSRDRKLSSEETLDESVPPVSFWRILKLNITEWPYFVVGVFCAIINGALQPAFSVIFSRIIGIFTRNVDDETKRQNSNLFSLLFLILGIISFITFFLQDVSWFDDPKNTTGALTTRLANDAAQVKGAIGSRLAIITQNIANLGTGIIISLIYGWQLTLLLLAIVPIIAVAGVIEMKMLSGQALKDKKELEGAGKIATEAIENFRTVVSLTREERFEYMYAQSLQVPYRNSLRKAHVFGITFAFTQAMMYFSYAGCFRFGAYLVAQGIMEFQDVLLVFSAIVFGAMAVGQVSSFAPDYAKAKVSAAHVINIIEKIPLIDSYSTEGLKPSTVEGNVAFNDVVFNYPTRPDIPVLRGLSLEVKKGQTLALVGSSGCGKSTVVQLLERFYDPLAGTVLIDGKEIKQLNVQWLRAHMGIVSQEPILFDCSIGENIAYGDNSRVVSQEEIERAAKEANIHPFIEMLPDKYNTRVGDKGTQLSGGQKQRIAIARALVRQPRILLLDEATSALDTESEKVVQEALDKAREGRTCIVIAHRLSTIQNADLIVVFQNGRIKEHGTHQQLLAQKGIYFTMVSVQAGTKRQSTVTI
Experimental: Taxol (10 μM) was used as a positive p-glycoprotein substrate.

CO[C@@H]1[C@@H](O)[C@@H](O)[C@H](Oc2ccc3cc(NC(C)=O)c(=O)oc3c2)OC1(C)C [KU-1/A4, N-(7-((2R,3R,4S,5R)-3,4-dihydroxy-5-methoxy-6,6-dimethyl-tetrahydro-2H-pyran-2-yloxy)-2-oxo-2H-chromen-3-yl)acetamide]
anti-proliferative effects SkBr3 [1]: no anti-proliferative effects | degradation of phosphorylated AKT (Hsp90 inhibition) [2]: the most potent novobiocin analogues identified | IC50 (concentration producing 50% degradation of Her-2) ([3]; 24 hours, normalized against actin): low micromolar range | concentrations between which a rapid decrease in Her-2 was observed ([3]; tested at 100 nM, 1 μM and 10 μM): between 100 nM and 1 μM | neurotoxicity of compound alone (primary cortical neurons; 100 nM (20× the EC50)): did not result in any observed neurotoxicity | toxic effects in neuronal cells (primary cortical neurons; 10 μM, 72 hours): no toxic effects | toxicity of the drug alone to neurons (primary cortical neurons; primary neurons, drug alone): no toxicity | P-gp substrate (P-glycoprotein (P-gp)): not a substrate for P-gp | rhodamine 123 uptake (P-glycoprotein (P-gp); rhodamine 123 5 μM, Taxol 10 μM, KU-1/A4 up to 50 μM): no effect on uptake

Reference: patent publication US9120774B2 (University of Kansas, priority 2009, dated 2015)
